Active and inactive are the calls of the source. The calls are words filed in the database; no cut-off is given here.
What was measured:
Staphylococcus aureus = assay: Antibacterial activity against Staphylococcus aureus; format: functional, organism-based
Escherichia coli = assay: Antibacterial activity against Escherichia coli K-12; format: functional, organism-based
Bacillus subtilis = assay: Antibacterial activity against Bacillus subtilis assessed as growth inhibition by microtiter plate-based MIC test

CC(C)=CCc1cccc2c1NC(=O)C2=O
Activity (Staphylococcus aureus): inactive | Activity (Escherichia coli): inactive | MIC (Bacillus subtilis): 25 µg/mL
